Substitutions are numbered along the chain they refer to.
Tests used:
Assay type in all cases: biochemical
R172K IDH2 [1] = target: T1, R172K IDH2 (Homo sapiens, UniProt P48735, R172K); assay: Absorbance assay, variant activity in the presence of equimolar 2OG (inhibition screen); conditions: 1.0 mM 2OG and 1.0 mM test compound, 0.03 μM R172K IDH2, 50 μM NADPH
T1 construct: made in house; host or cells: Sf21 insect cells (cell pellets prepared at Evotec)
T1 sequence (P48735 40-452 R172K): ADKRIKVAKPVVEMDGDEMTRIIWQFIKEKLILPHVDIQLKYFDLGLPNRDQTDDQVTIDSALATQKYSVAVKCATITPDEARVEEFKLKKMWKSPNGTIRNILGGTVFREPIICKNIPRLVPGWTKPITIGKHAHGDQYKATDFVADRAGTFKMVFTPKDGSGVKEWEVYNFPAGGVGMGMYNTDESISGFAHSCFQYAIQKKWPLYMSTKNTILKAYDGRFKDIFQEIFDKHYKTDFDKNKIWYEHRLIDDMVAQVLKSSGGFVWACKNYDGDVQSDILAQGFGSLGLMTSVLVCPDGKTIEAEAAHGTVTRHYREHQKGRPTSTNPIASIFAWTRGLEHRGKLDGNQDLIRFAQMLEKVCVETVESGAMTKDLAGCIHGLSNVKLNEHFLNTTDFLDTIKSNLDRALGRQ
Procedure, shortened: (§1)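 Quadruplicate technical repeats are run. Reaction start is by reagent dispenser.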

R140Q IDH2 [2] = target: T2, R140Q IDH2 (Homo sapiens, UniProt P48735, R140Q); assay: as above; conditions: 6.0 mM 2OG and 6.0 mM test compound, 0.03 μM R140Q IDH2, 50 μM NADPH
T2 construct: made in house; host or cells: Sf21 insect cells (cell pellets prepared at Evotec)
T2 sequence (P48735 40-452 R140Q): T1 sequence (P48735 40-452 R172K) with R101Q, K133R
Procedure, shortened: as §1

WT IDH2 [3] = target: T3, WT IDH2 (Homo sapiens, UniProt P48735); assay: Absorbance assay, WT activity in the presence of equimolar DL-isocitrate (inhibition); conditions: […] isocitrate and […] test compound, 75 μM NADP+, 2.0 nM WT IDH2
T3 construct: made in house; host or cells: Sf21 insect cells (cell pellets prepared at Evotec)
T3 sequence (P48735 40-452): T1 sequence (P48735 40-452 R172K) with K133R
Procedure, shortened: as §1

WT IDH1 [4] = target: T4, WT IDH1 (Homo sapiens, UniProt O75874); assay: as above; conditions: […] isocitrate and […] test compound, 75 μM NADP+, 2.0 nM WT IDH1
T4 construct: made in house; host or cells: Escherichia coli BL21(DE3) pLyS
Procedure, shortened: as §1

WT IDH2 [5] = target: T3, WT IDH2; assay: Absorbance assay, substrate activity in the absence of DL-isocitrate; conditions: no DL-isocitrate; […] test compound, 75 μM NADP+, 2.0 nM WT IDH2; compared to DL-isocitrate
Procedure, shortened: as §1

WT IDH1 [6] = target: T4, WT IDH1; assay: as above; conditions: no DL-isocitrate; […] test compound, 75 μM NADP+, 2.0 nM WT IDH1; compared to DL-isocitrate
Procedure, shortened: as §1

R132H IDH1 [7] = target: T5, R132H IDH1 (Homo sapiens, UniProt O75874, R132H); assay: Absorbance assay, variant activity in the presence of equimolar 2OG (inhibition screen); parameters: made in house; host or cells: Escherichia coli BL21(DE3) pLyS; conditions: […] 2OG and […] test compound, 0.03 μM R132H IDH1, 50 μM NADPH
Procedure, shortened: as §1
Target sequence in this assay (O75874 whole entry R132H): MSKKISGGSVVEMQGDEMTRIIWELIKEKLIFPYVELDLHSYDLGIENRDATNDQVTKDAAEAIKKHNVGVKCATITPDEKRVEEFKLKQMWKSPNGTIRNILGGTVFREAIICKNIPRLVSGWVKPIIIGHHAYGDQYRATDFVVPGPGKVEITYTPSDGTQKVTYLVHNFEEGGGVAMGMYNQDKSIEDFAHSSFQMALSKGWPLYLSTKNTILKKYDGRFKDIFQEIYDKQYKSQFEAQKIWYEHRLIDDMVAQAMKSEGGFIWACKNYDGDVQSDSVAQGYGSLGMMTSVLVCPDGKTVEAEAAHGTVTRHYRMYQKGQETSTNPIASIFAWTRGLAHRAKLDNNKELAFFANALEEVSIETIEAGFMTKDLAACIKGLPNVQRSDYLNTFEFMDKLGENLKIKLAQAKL

R140Q IDH2 [8] = target: T2, R140Q IDH2; assay: Steady-state kinetics, absorbance assay; conditions: 0.03 μM enzyme, 50 μM NADPH, 20 mM MgCl2, pH 8.0
Procedure: (§2) Compounds were dispensed using a CyBio SDW-CW CyBi-Well Simultaneous Pipettor and assay started using a ThermoFisher Multidrop Combi reagent dispenser.
(§3) Reactions were performed as technical duplicates, and all assays were carried out in two independent duplicates.

R132H IDH1 [9] = target: T5, R132H IDH1; assay: Steady-state kinetics, absorbance assay; parameters: made in house; host or cells: Escherichia coli BL21(DE3) pLyS
Procedure: as §2, §3
Target sequence in this assay (O75874 whole entry R132H): as above

R132H IDH1 [10] = target: T5, R132H IDH1; assay: Electrochemical assay (FNR+R132H IDH1)@ITO/PGE electrode; parameters: made in house; host or cells: Escherichia coli BL21(DE3) pLyS (IDH1 R132H); conditions: for predicted change in catalytic rate: simulated from experimental Km and vmax, if 500 μM substrate consumed at the electrode-solution interface per scan
Procedure: Assays were carried out in an anaerobic glovebox (Glove Box Technology) under a nitrogen atmosphere. A potentiostat (Autolab PGSTAT 10) running on Nova software was used for all experiments. As previously described, the electrochemical apparatus included an Autolab electrode rotator, a two-chamber custom-made glass electrochemical cell, and custom-made rotating pyrolytic graphite edge (PGE) electrodes ([55]). Platinum wire was used as the counter electrode; it was placed in the working electrode chamber. Electrode potentials (E) were measured against a saturated calomel electrode and converted to the standard hydrogen electrode using a temperature-dependent equation (at 25 °C: ESHE = ESCE + 0.2412 V) ([55]). Nanoporous indium tin oxide (ITO) electrodes were made by electrophoretically depositing ITO nanoparticles (<50 nm, Sigma-Aldrich) onto PGE electrodes (ITO/PGE) as previously described ([55]). […] In all experiments, 0.85 nmol (homodimer basis) of IDH1 R132H was used; the amount of coloaded FNR was adjusted to achieve the desired enzyme loading ratio. Electrodes loaded with enzyme were thoroughly rinsed using buffer solution before each experiment to remove excess enzyme. […]
and controlled electrochemically under steady-state conditions (1).
Conditions: 25 °C, mixed buffer (20 […]
mM each MES, TAPS, CHES, pH 8.0), 10 mM MgCl2, 10 µM NADPH, 4 mL cell volume, (FNR+R132H IDH1)@ITO/PGE electrode, electrode area 0.06 cm2, rotated at 1000 rpm, E = –0.513 V vs SHE, enzyme loading ratios (molar): FNR/R132H IDH1; 2.5 (dimer basis).
(1 picture or pasted object on this page, not shown here)
Target sequence in this assay (O75874 2-414 R132H): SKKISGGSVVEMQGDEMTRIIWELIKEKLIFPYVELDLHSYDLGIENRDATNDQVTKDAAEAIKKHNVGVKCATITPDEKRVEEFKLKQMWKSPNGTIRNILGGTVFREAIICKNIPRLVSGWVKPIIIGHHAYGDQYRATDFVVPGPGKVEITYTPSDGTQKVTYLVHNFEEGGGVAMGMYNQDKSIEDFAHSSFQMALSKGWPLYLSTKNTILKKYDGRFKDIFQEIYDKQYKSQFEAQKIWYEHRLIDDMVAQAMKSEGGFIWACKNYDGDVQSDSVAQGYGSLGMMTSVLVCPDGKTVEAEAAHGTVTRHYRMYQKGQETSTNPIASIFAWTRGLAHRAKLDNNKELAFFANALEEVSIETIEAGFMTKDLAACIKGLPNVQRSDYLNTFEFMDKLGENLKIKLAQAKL

R132H IDH1 [11] = target: T5, R132H IDH1; assay: Absorbance assay (NADPH consumption), substrate turnover in the absence of 2OG; parameters: made in house; host or cells: Escherichia coli BL21(DE3) pLyS; conditions: no 2OG; […] test compound, 0.03 μM R132H IDH1, 50 μM NADPH; 2OG = 100
Procedure, shortened: as §1
Target sequence in this assay (O75874 whole entry R132H): as the sequence (O75874 whole entry R132H) above

R172K IDH2 [12] = target: T1, R172K IDH2; assay: as above; conditions: no 2OG; 1.0 mM test compound, 0.03 μM R172K IDH2, 50 μM NADPH; 2OG = 100
Procedure, shortened: as §1

R140Q IDH2 [13] = target: T2, R140Q IDH2; assay: as above; conditions: no 2OG; 6.0 mM test compound, 0.03 μM R140Q IDH2, 50 μM NADPH; 2OG = 100
Procedure, shortened: as §1

R172K IDH2 [14] = target: T1, R172K IDH2; assay: Steady-state kinetics, absorbance assay; conditions: 0.03 μM enzyme, 50 μM NADPH, 20 mM MgCl2, pH 8.0
Procedure: as §2, §3

T4 sequence (O75874 whole entry): as the sequence (O75874 whole entry R132H) above, with H132R counted along it

activity [%] (%-substrate conversion after 20 min incubation) (R172K IDH2 [1])	activity [%] (%-substrate conversion after 20 min incubation) (R140Q IDH2 [2])	activity [%] (%-substrate conversion after 20 min incubation) (WT IDH2 [3])	activity [%] (%-substrate conversion after 20 min incubation) (WT IDH1 [4])	activity [%] (%-substrate conversion after 20 min incubation) (WT IDH2 [5])	activity [%] (%-substrate conversion after 20 min incubation) (WT IDH1 [6])	activity [%] (%-substrate conversion after 20 min incubation) (R132H IDH1 [7])	Kmapp (R140Q IDH2 [8])	Vmax (predicted for single enantiomer) (R132H IDH1 [9]; predicted, Fig. 3H simulation)	predicted change in catalytic rate (R132H IDH1 [10])	Kmapp (R132H IDH1 [9]; 0.03 μM enzyme, 50 μM NADPH, 20 mM MgCl2, pH 8.0)	Vmax (R132H IDH1 [9]; experimental value used for Michaelis-Menten simulation, Fig. 3H)	decrease of R132H IDH1 faradaic 'coupled' current during each scan (R132H IDH1 [10]; cyclic voltammetry, stationary electrode, 20 μM NADPH, 10 mM MgCl2, pH 8)	activity [%] (%-substrate conversion after 20 min incubation) (R132H IDH1 [11])	activity [%] (%-substrate conversion after 20 min incubation) (R172K IDH2 [12])	activity [%] (%-substrate conversion after 20 min incubation) (R140Q IDH2 [13])	kcatapp (R172K IDH2 [14])	SMILES
114 ± 4%	91 ± 8%	99±1%	94±1%	< 10%	< 10%	229 ± 21%	3.8 to 7.5 mM										O=C(O)CC(Cc1ccccc1)C(=O)C(=O)O (stereo not drawn) [compound 7, 3-benzyl-2OG]
								9.6 µM/min	−46%								CC(CC(=O)C(=O)O)C(=O)O (single isomer, unassigned) [enantiopure 12]
112 ± 13%	281 ± 4%	100±4%	107±4%	< 10%	< 10%	161 ± 26%			−22%	12 mM	9.6 µM/min	−43%					CC(CC(=O)C(=O)O)C(=O)O (stereo not drawn) [compound 12, 4-methyl-2OG]
131 ± 16%	865 ± 78%	96±3%	98±10%	< 10%	< 10%	317 ± 12%	3.8 to 7.5 mM										CCC(CC(=O)O)C(=O)C(=O)O (racemic) [compound 2]
104 ± 5%	116 ± 9%	100 ± 2%	105 ± 2%	< 10%	< 10%	105 ± 3%							< 10%	< 10%	< 10%		C/C(=C\C(=O)O)C(=O)O [mesaconic acid]
102 ± 7%	117 ± 3%	100 ± 1%	105 ± 2%	< 10%	< 10%	99 ± 2%							< 10%	< 10%	< 10%		NC(=O)C(=O)O [oxamic acid]
105 ± 6%	632 ± 68%	96±5%	105±5%	< 10%	< 10%	294 ± 31%										~2.7 s⁻¹	CCCC(CC(=O)O)C(=O)C(=O)O (racemic) [compound 3]
